# Data: patent US5468773A, “Methods for inhibiting bone loss and cartilage degradation using wortmannin and its analogs” (Eli Lilly and Company, priority 1994, dated 1995)
# Where two headings read alike, the source gives them in different places. Ends that are not written are not given here.
# Experiments:
# [1] = test system: hen osteoclasts; test: inhibition of in vitro bone resorption activity of hen osteoclasts; assay type: cell-based; conditions: for percent of control bone resorption: mean ± SE, n=3-6
# Procedure: (§1) Control resorption in Table 2b corresponded to 12-62 Howship's lacunae per bone slice (n=4-4. mean ±SE).
# As summarized in Table 3, the various analogs inhibited the resorption of hen osteoclasts with IIIA IC50=10 nM; IIIb, IC50=100 nM; and Ib, IC50=500 nM. Data presented are percent of control bone resorption (n=3-6, mean ±SE). Control levels of resorption varied from 26-49 mg bone resorbed between days 4-6 in culture.
# [2] = test system: osteoclastic bone resorption; test: serum calcium in a rat model of secondary hyperparathyroidism (calcium deficient diet), 6 hr infusion; assay type: in vivo, Sprague Dawley rats; conditions: T=0 control 12 mg/dl, P<0.05
# Text: Compounds were also examined in a rat model of secondary hyperparathyroidism according to similars method as set out in Thomas et al., Bone and Mineral, 4, pp. 73-82 (1988) in an effort to examine the ability of these compounds to inhibit osteoclastic bone resorption in vivo. Serum calcium levels (mg/dl) were previously shown to be dependant on bone resorption in Sprague Dawley rats (400 g males) maintained on a calcium deficient diet for 2 weeks. Serum calcium levels were examined colorimetrically (Sigma, St. Louis) before (T=O) and after 6 hr infusion (T=6) of compounds at a rate of 0.08 ml/hr through cannula inserted into the jugular vein of anesthesized rates. At T=0, the serum calcium of a control rat was 12 mg/dl.
# [3] = test system: ovariectomized rats; test: bone mineral density and content of left proximal tibiae in ovariectomized rats (pQCT); assay type: in vivo, rat; conditions: 5 weeks, mean ± SD, n=6; for Bone Content: Sham 14 ± 1.5, OVX 10.4 ± 1.2; for Total Bone Mineral Density: Sham 590 ± 26, OVX 494 ± 29
# Text: As summarized in Table 4, IIIa was also examined in 6 month old, ovariectomized rats. The bone mineral density (mg/cm^3) and bone mineral content (mg) of the left proximal tibiae were quantitated by computer tomography with a Norland 960 pQCT after daily dosing per os for 5 weeks, similar to the methods of Griffin et al., "Dual-energy X-ray Absorptiometry of the Rat: Accuracy, Precision and Measurement of Bone Loss", J. Bone Miner. Res 8, pp. 795-800 (1993). There were five groups of rats with n=6 per group: Sham, OVX, 0.001, 0.01, and 0.1 mg of IIIa/kg per os daily. In vivo data are presented for a 2 mm slice of the left proximal tibia at 5 weeks post-ovariectomy (mean ±standard deviation).
# [4] = test system: rat osteoclasts; test: inhibition of in vitro bone resorption activity of rat osteoclasts (Howship's lacunae per bone slice); assay type: cell-based; conditions: Osteoclast, Table 2b, mean ± SE, read-out: % Control Bone Resorption
# Text: as §1
# [5] = test system: post-menopausal loss of bone; conditions: chronic treatment, clinical data; background; cited from earlier work
# [6] = test system: mammalian osteoclasts; conditions: background; cited from earlier work
# [7] = Table 3, concentration 1 × 10^-6
# [8] = Table 3, concentration 1 × 10^-7
# [9] = Table 3, concentration 1 × 10^-8
# [10] = Table 3, concentration 1 × 10^-9
# [11] = 1 mg/kg/day infused via jugular vein
# [12] = Osteoclast, read-out: % Control Bone Resorption
molecule,measurement,setting,value
"COC[C@H]1OC(=O)c2coc3c2[C@@]1(C)C1=C(C3=O)[C@@H]2CC[C@H](O)[C@@]2(C)C[C@H]1OC(C)=O [IIIa, 17α-Dihydrowortmannin]",percent of control bone resorption,[1]; [7],8 ± 1%
same,percent of control bone resorption,[1]; [8],29 ± 4%
same,percent of control bone resorption,[1]; [9],67 ± 5%
same,percent of control bone resorption,[1]; [10],94 ± 5%
same,serum calcium after 6 hr of infusion,[2]; [11],~5 mg/dL
same,Bone Content,[3]; 0.001 mg/kg/day per os,13.6 ± .6 mg
same,Total Bone Mineral Density,[3]; 0.001 mg/kg/day per os,528 ± 33 mg/cm3
same,Bone Content,[3]; 0.01 mg/kg/day per os,13.5 ± 1 mg
same,Total Bone Mineral Density,[3]; 0.01 mg/kg/day per os,545 ± 26 mg/cm3
same,Bone Content,[3]; 0.1 mg/kg/day per os,11.5 ± .7 mg
same,Total Bone Mineral Density,[3]; 0.1 mg/kg/day per os,494 ± 18 mg/cm3
"COC[C@H]1OC(=O)c2coc3c2[C@@]1(C)C1=C(C3=O)[C@@H]2CC[C@H](O)[C@@]2(C)CC1 [IIIb, 11-Desacetoxy-17α-dihydrowortmannin]",IC50,"[1]; Osteoclast, read-out: IC50, resorption of hen osteoclasts",0.1 µM
same,percent of control bone resorption,[1]; [7],26 ± 3%
same,percent of control bone resorption,[1]; [8],50 ± 4%
same,percent of control bone resorption,[1]; [9],88 ± 19%
same,percent of control bone resorption,[1]; [10],124 ± 23%
Cc1c2c(c(O)c3occ(C(=O)O)c13)[C@@H]1CCC(=O)[C@@]1(C)C=C2 [IVa],percent of control bone resorption,[1]; [7],105 ± 10%
same,percent of control bone resorption,[1]; [8],110 ± 13%
same,percent of control bone resorption,[1]; [9],99 ± 15%
same,percent of control bone resorption,[1]; [10],93 ± 14%
"COC[C@H]1OC(=O)c2coc3c2[C@@]1(C)C1=C(C3=O)[C@@H]2CCC(=O)[C@@]2(C)CC1 [Ib, 11-deacetoxywortmannin]",IC50,"[1]; Osteoclast, hen osteoclasts, analogs, Example 2, read-out: IC50, resorption of hen osteoclasts",0.5 µM
same,percent of control bone resorption,[1]; [7],42 ± 3%
same,percent of control bone resorption,[1]; [8],90 ± 15%
same,percent of control bone resorption,[1]; [9],97 ± 17%
same,percent of control bone resorption,[1]; [10],106 ± 10%
"COC[C@H]1OC(=O)c2coc3c2[C@@]1(C)C1=C(C3=O)[C@@H]2CCC(=O)[C@@]2(C)C[C@H]1OC(C)=O [Wortmannin, wortmannin]",activity at 0.01 µM,[1]; [12],90 ± 7%
same,activity at 0.05 µM,[1]; [12],79 ± 2%
same,activity at 0.1 µM,[1]; [12],58 ± 6%
same,activity at 0.5 µM,[1]; [12],52 ± 3%
same,activity at 1 µM,[1]; [12],54 ± 4%
same,activity at 5 µM,[1]; [12],19 ± 1%
same,activity at 10 µM,[1]; [12],23 ± 7%
same,IC50,"[1]; Osteoclast, read-out: IC50, in vitro bone resorption activity",0.3 µM
same,activity at 1 µM,[4]; 1 × 10^-6 M,3 ± 3%
same,activity at 0.1 µM,[4]; 1 × 10^-7 M,30 ± 6%
same,activity at 0.01 µM,[4]; 1 × 10^-8 M,32 ± 13%
same,activity at 0.001 µM,[4]; 1 × 10^-9 M,79 ± 22%
same,activity at 0.0001 µM,[4]; 1 × 10^-10 M,93 ± 11%
same,serum calcium after 6 hr of infusion,[2]; [11],approximately 9 mg/dl
"calcitonin: calcitonin has been used to treat osteoporotic patients (CGNLSTCMLGTYTQDFNKFHTFPQTAIGVGAP; ends and bridges not checked; cysteine pairing not given here; UniProt P01258 85-116, looked up)",arrest of post-menopausal loss of bone,[5],ineffective to arrest the post-menopausal loss of bone
salmon calcitonin [reference compound],serum calcium after 6 hr of infusion,"[2]; positive control, 12 ug/kg/day",9 mg/dL
same,inhibition of resorption activity of mammalian osteoclasts,[6],directly inhibit the resorption activity of mammalian osteoclasts
